Experimental data: patent US20170333391A1, “METHOD FOR DELAYING THE ONSET OF PULMONARY FIBROSIS OR TREATING PULMONARY FIBROSIS” (EVERFRONT BIOTECH INC., priority 2016, published 2017)

Tested on: TGF-β protein
Experiment: TGF-β protein expression in TGF-β1-induced NHLF, western blotting (2-2)
Type: cell-based, human
Settings: TGF-β1-only control group = 1
Method: Normal Human lung fibroblasts (NHLF) were seeded into 6 cm culture dishes at a density of 2×10^5 cells/dish, comprising a control group and six experimental groups (7 dishes in total). The cells were cultured until the next day, and then the mediums were removed. Each group was respectively treated under the following conditions to conduct follow-up experiments: • (1) Positive control group: cells were cultured in a FGM-2 medium containing 1% serum and TGF-β1 (5 ng/ml) for 36 hours; • (2) Group I: cells were firstly cultured in a FGM-2 medium containing 1% serum and TGF-β1 (5 ng/ml) for 12 hours, and then compound (1) was added into the medium to provide a final concentration of 15 μg/ml; thereafter, the cells were cultured for another 24 hours; • (3) Group II: cells were firstly cultured in a FGM-2 medium containing 1% serum and TGF-β1 (5 ng/ml) for 12 hours, and then compound (1) was added into the medium to provide a final concentration of 25 μg/ml; thereafter, the cells were cultured for another 24 hours; • (4) Group III: cells were firstly cultured in a FGM-2 medium containing 1% serum and TGF-β1 (5 ng/ml) for 12 hours, and then compound (1) was added into the medium to provide a final concentration of 35 μg/ml; thereafter, the cells were cultured for another 24 hours; • (5) Group IV: cells were firstly cultured in a FGM-2 medium containing 1% serum and TGF-β1 (5 ng/ml) for 12 hours, and then the Pirfenidone was added into the medium to provide a final concentration of 100 μg/ml; thereafter, the cells were cultured for another 24 hours; • (6) Group V: cells were firstly cultured in a FGM-2 medium containing 1% serum and TGF-β1 (5 ng/ml) for 12 hours, and then the Pirfenidone was added into the medium to provide a final concentration of 250 μg/ml; thereafter, the cells were cultured for another 24 hours; and • (7) Group VI: cells were firstly cultured in a FGM-2 medium containing 1% serum and TGF-β1 (5 ng/ml) for 12 hours, and then the Pirfenidone was added into the medium to provide a final concentration of 500 μg/ml; thereafter, the cells were cultured for another 24 hours.
Thereafter, the proteins in the cells of each group were extracted, and the expressions of type I collagen, BMP-7 protein and TGF-β protein in the NHLF cells of each group were measured with western blotting. The results of the control group served as the basis for calculating the relative expression levels of the other groups.

SMILES: CCCC=C1OC(=O)c2ccccc21 [compound (1)]
- Relative expression level (fold) TGF-β protein (Group I: TGF-β1 5 ng/ml 12 h, then compound (1) 15 μg/ml 24 h): 0.81 fold
- Relative expression level (fold) TGF-β protein (Group II: TGF-β1 5 ng/ml 12 h, then compound (1) 25 μg/ml 24 h): 0.77 fold
- Relative expression level (fold) TGF-β protein (Group III: TGF-β1 5 ng/ml 12 h, then compound (1) 35 μg/ml 24 h): 0.58 fold
